Assay results as given in PMC9597602, “Metal Complexes as Antifungals? From a Crowd-Sourced Compound Library to the First In Vivo Experiments” (JACS Au, 2022).
Read-outs that look alike come from different tables or passages of the source.

Legend:
[1] = test system: Candida auris CBS12373 KCTC 17810; test: Antifungal MIC assay, extended panel; format: cell-based; settings: extended panel
In short: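 This broth microdilution MIC test followed the reference method for antifungal susceptibility testing of yeasts. Fluconazole served as the internal control on every plate. Inoculum came from 3-day YPD agar cultures, was diluted in YNB to 2.5 × 10^3 CFU/mL in 50 μL per well of 384-well plates, and was incubated 36 h at 35 °C. Compounds ran as two technical replicates across two to four independent assays.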

[2] = test system: Candida auris CBS10913 JCM 15448; test: Antifungal MIC assay, extended panel; format: cell-based; settings: extended panel
In short: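 This broth dilution MIC test for yeast used colonies cultured 3 days at 30 °C on YPD agar, suspended to 1 × 10^6 to 5 × 10^6 CFU/mL by OD530 and diluted with YNB. Cells were added at a final 2.5 × 10^3 CFU/mL (50 μL total) to 384-well plates with compound, incubated unshaken at 35 °C for 36 h, with fluconazole as an internal control on every plate.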

[3] = test system: human ovarian carcinoma cell line A2780; settings: cited from earlier work
human red blood cells = format: cell-based
In short: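 Washed human erythrocytes at 0.5 × 10^8 cells/mL incubated with compound, then centrifuged. Haemolysis read as supernatant OD405, normalised to untreated cells (0%) and 1% Triton X-100 (100%), with melittin as internal plate control.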

[4] = test system: HEK-293 human embryonic kidney cells ATCC CRL-1573
Procedure: The cells were incubated together with the compounds for 20 h at 37 °C in 5% CO2. […] Tamoxifen (Sigma T5648) was used as internal control on each plate.

[5] = test system: Cryptococcus neoformans H99 ATCC 208821 type strain; test: Antifungal MIC assay; format: cell-based
In short: (§1)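 Colonies from 3-day YPD plates (30 °C) were suspended, diluted into YNB and added to compound plates at a final density of 2.5 × 10^3 CFU/mL. After 36 h at 35 °C without agitation, growth inhibition of ≥80% defined the MIC. Two technical replicates, 2–4 independent runs.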

[6] = test system: Cryptococcus deuterogattii ATCC 32609 VGII; test: Antifungal MIC assay, extended panel; format: cell-based; settings: extended panel; 50% inhibition, MIC score 2
[7] = test system: Candida tropicalis ATCC 750; test: Antifungal MIC assay, extended panel; format: cell-based; settings: extended panel, second batch; ≥80 or ≥50% inhibition
In short: as §1

[8] = test system: Candida glabrata ATCC 90030 NCCLS 84; test: Antifungal MIC assay, extended panel; format: cell-based; settings: extended panel, second batch; ≥80 or ≥50% inhibition
In short: as §1

[9] = test system: Cryptococcus deuterogattii ATCC 32609 VGII; test: Antifungal MIC assay, extended panel; format: cell-based; settings: extended panel, second batch; ≥80 or ≥50% inhibition
[10] = test system: Cryptococcus deuterogattii CBS7750 VGII; Serotype B; test: Antifungal MIC assay, extended panel; format: cell-based; settings: extended panel, second batch; ≥80 or ≥50% inhibition
In short: as §1

[11] = test system: Candida glabrata ATCC 90030 NCCLS 84; test: Antifungal MIC assay, extended panel; format: cell-based; settings: extended panel; 50% inhibition, MIC score 2
[12] = test system: Candida tropicalis ATCC 750; test: Antifungal MIC assay, extended panel; format: cell-based; settings: extended panel; 50% inhibition, MIC score 2
[13] = test system: Escherichia coli ATCC 25922 FDA control strain; test: CO-ADD antibacterial MIC assay; format: cell-based; settings: initial CO-ADD dose-response screening; ≥80% growth inhibition
In short: (§2)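 Growth inhibition is scored by absorbance at 600 nm after bacteria at 5 × 10^5 CFU/mL in cation-adjusted Mueller Hinton broth sit with compound for 18 h at 37 °C without shaking. The MIC is taken where inhibition reaches ≥80%, equivalent to no visible growth.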

[14] = test system: Acinetobacter baumannii ATCC 19606 type strain; test: CO-ADD antibacterial MIC assay; format: cell-based; settings: initial CO-ADD dose-response screening; ≥80% growth inhibition
In short: as §2

[15] = test system: Pseudomonas aeruginosa ATCC 27853 QC control strain; test: CO-ADD antibacterial MIC assay; format: cell-based; settings: initial CO-ADD dose-response screening; ≥80% growth inhibition
In short: as §2

[16] = test system: methicillin-resistant Staphylococcus aureus ATCC 43300; test: CO-ADD antibacterial MIC assay; format: cell-based; settings: initial CO-ADD dose-response screening; ≥80% growth inhibition
In short: as §2

[17] = test system: Cryptococcus deuterogattii CBS7750 VGII; Serotype B; test: Antifungal MIC assay, extended panel; format: cell-based; settings: extended panel; 50% inhibition, MIC score 2
[18] = test system: Candida albicans ATCC 90028 NCCLS11; test: Antifungal MIC assay; format: cell-based
In short: as §1

[19] = extended panel, second batch, ≥80 or ≥50% inhibition
[20] = extended panel, 50% inhibition, MIC score 2
[21] = initial CO-ADD dose-response screening, ≥80% growth inhibition

Q: With Cc1c(C)c(C)[c-](C)c1C.Cc1c(C)c(C)[c-](C)c1C.[Cl-].[Cl-].[Cl-].[Cl-].[Rh+3].[Rh+3] [Rh1] as the compound, how does the MIC ([1]; second batch, ≥80 or ≥50% inhibition, read-out: MIC* Candida auris CBS12373) read?
A: 0.78 µM

Q: What about the “MIC50 Candida auris CBS12373” value ([1]; 50% inhibition, MIC score 2) of the same compound?
A: 0.391 to 0.781 µM

Q: And the “MIC Candida auris CBS10913” value ([2]; second batch, ≥80 or ≥50% inhibition)?
A: 0.781 to 1.56 µM

Q: And the “MIC50 Candida auris CBS10913” value ([2]; 50% inhibition, MIC score 2)?
A: 0.781 to 1.56 µM

Q: What about the IC50 [3] of the same compound?
A: 7.3 ± 1.5 µM

Q: And the “RBC HC10” value (human red blood cells; initial CO-ADD screening, 1 h, 10% hemolysis)?
A: >32 µg/mL

Q: And the “RBC HC10” value (human red blood cells; ranges obtained upon retesting, new batch)?
A: 0.4 to 3 µM

Q: What about the “HEK CC50” value ([4]; initial CO-ADD screening, 20 h) of the same compound?
A: >32 µg/mL

Q: And the CC50 ([4]; read-out: HEK293 CC50, ranges obtained upon retesting, new batch)?
A: > 200 µM

Q: What about the “cytotoxicity: none up to stated concentration” value ([4]; retest) of the same compound?
A: > 200 µM

Q: And the “MIC Cryptococcus neoformans ATCC 208821” value [5, 19]?
A: 0.195 to 0.391 µM

Q: And the “MIC50 Cryptococcus neoformans ATCC 208821” value [5, 20]?
A: 0.195 to 0.391 µM

Q: And the “MIC Cn” value [5, 21]?
A: 2 µg/mL

Q: And the “MIC50 Cryptococcus deuterogattii ATCC 32609” value [6]?
A: 0.78 to 1.56 µM

Q: And the “MIC Candida tropicalis ATCC 750” value [7]?
A: 0.391 to 0.781 µM

Q: What about the MIC [8] of the same compound?
A: 6.25 µM

Q: And the “MIC Cryptococcus deuterogattii ATCC 32609” value [9]?
A: 0.781 to 1.56 µM

Q: And the MIC [10]?
A: 0.391 µM

Q: What about the “MIC50 Candida glabrata ATCC 90030” value [11] of the same compound?
A: 0.391 to 6.25 µM

Q: What about the “MIC50 Candida tropicalis ATCC 750” value [12] of the same compound?
A: 0.391 to 0.781 µM

Q: And the “MIC Ec” value [13]?
A: >32 µg/mL

Q: What about the “MIC Ab” value [14] of the same compound?
A: >32 µg/mL

Q: What about the “MIC Pa” value [15] of the same compound?
A: >32 µg/mL

Q: What about the “MIC MRSA (Sa)” value [16] of the same compound?
A: >32 µg/mL

Q: And the “MIC50 Cryptococcus deuterogattii CBS7750” value [17]?
A: 0.391 µM

Q: And the “MIC Candida albicans ATCC 90028” value [18, 19]?
A: 0.39 to 1.56 µM

Q: And the “MIC50 Candida albicans ATCC 90028” value [18, 20]?
A: 0.391 to 1.56 µM

Q: What about the “MIC Ca” value [18, 21] of the same compound?
A: 4 µg/mL
